The values that follow come from ChEMBL document CHEMBL5465560, “Selectivity Literature for EUbOPEN Chemogenomic Library” (2024).

The term IC50 denotes the concentration at which inhibition is half-maximal. Low values mean higher potency, high ones lower potency.

Test [1] addresses Cyclin-dependent kinase 2/cyclin E (Homo sapiens, UniProt P24941). In words: (§1) Selectivity interaction (Enzymatic assay (Reaction Biology)) EUB0001632a CDK2. The format is protein-complex assay.
The target in test [2] is CDK2/Cyclin A2 (Homo sapiens, UniProt P24941). Described as §1. The format is protein-complex assay.
In test [3] the target is Dual specificity protein kinase CLK4 (Homo sapiens, UniProt Q9HAZ1). As to the kind of experiment: Selectivity interaction (KinomeScan (DiscoverX)) EUB0000666a CLK4. The following applies: at 10 µM.
Test [4] addresses T1, Dual serine/threonine and tyrosine protein kinase (Homo sapiens) (UniProt Q6XUX3).
T1 sequence (whole entry): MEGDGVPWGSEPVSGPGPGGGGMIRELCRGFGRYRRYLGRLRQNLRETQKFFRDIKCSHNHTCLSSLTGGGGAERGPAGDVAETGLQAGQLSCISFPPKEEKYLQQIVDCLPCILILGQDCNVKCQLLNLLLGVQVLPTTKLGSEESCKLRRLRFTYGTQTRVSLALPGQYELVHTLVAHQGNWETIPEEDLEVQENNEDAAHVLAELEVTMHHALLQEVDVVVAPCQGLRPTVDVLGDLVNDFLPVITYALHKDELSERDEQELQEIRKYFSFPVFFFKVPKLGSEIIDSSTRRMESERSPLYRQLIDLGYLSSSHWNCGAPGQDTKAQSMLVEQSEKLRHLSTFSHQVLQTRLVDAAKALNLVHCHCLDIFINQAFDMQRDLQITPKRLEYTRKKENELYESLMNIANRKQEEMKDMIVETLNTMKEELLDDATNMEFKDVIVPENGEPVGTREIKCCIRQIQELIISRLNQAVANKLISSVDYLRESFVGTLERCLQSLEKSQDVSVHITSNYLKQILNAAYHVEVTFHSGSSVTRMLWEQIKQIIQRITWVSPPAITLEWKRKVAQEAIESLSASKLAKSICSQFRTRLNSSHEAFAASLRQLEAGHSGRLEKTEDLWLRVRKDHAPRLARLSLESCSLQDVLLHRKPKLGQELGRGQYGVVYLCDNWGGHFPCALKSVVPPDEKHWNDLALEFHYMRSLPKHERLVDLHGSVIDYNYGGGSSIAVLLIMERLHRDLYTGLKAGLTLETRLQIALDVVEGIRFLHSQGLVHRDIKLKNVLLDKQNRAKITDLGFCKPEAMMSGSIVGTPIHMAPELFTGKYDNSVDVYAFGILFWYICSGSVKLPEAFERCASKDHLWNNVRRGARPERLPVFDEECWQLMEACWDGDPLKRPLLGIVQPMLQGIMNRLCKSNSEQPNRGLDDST
In words: Selectivity interaction (KinomeScan (DiscoverX)) EUB0000229b DSTYK. The following applies: at 10 µM.

Test [5] addresses T2, Phosphatidylinositol 5-phosphate 4-kinase type-2 gamma (Homo sapiens) (UniProt Q8TBX8).
T2 sequence (whole entry): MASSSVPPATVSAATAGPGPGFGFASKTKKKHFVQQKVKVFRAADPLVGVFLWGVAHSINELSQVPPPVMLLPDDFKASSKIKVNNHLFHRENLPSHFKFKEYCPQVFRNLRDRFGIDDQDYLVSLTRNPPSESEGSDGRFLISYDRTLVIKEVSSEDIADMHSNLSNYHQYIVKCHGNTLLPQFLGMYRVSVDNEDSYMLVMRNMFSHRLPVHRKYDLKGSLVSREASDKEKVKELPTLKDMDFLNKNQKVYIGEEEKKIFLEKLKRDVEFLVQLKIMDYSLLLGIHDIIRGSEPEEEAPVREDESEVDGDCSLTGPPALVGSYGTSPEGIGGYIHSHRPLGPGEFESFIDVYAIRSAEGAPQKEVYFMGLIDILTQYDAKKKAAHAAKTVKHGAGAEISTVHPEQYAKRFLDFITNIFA
As to the kind of experiment: Selectivity interaction (ActivX KiNativ screen (ex vivo kinase selectivity in human PBMCs)) EUB0001619a PIP4K2C. The following applies: PBMC, at 1 µM. The format is cell-based.

The target of test [6] is Serine/threonine-protein kinase 10 (Homo sapiens) (UniProt O94804). In words: Selectivity interaction (ActivX KiNativ screen (kinase selectivity in THP-1 cell lysates)) EUB0000639a STK10. The format is subcellular. As to conditions: lysate, at 5 µM.
Test [7] addresses STE20-like serine/threonine-protein kinase (Homo sapiens, UniProt Q9H2G2). As to the kind of experiment: Selectivity interaction (ActivX KiNativ screen (kinase selectivity in THP-1 cell lysates)) EUB0000639a SLK. The format is subcellular. As to conditions: lysate, at 0.04 µM.
The target in test [8] is Ribosomal protein S6 kinase alpha-1 (Homo sapiens, UniProt Q15418). As to the kind of experiment: Selectivity interaction (ActivX KiNativ screen (kinase selectivity in THP-1 cell lysates)) EUB0000639a RPS6KA1. The format is subcellular. The following applies: lysate, at 0.04 µM.
Test [9] concerns the target Interleukin-1 receptor-associated kinase 1 (Homo sapiens) (UniProt P51617). As to the kind of experiment: Selectivity interaction (KinomeScan (DiscoverX)) EUB0000695a IRAK1. As to conditions: at 100 nM.
Test [10] addresses Serine/threonine-protein kinase 33 (Homo sapiens) (UniProt Q9BYT3). As to the kind of experiment: Selectivity interaction (ProQinase) EUB0000171b STK33.
Test [11] concerns the target T3, Serine/threonine-protein kinase tousled-like 1 (Homo sapiens) (UniProt Q9UKI8).
T3 sequence (whole entry): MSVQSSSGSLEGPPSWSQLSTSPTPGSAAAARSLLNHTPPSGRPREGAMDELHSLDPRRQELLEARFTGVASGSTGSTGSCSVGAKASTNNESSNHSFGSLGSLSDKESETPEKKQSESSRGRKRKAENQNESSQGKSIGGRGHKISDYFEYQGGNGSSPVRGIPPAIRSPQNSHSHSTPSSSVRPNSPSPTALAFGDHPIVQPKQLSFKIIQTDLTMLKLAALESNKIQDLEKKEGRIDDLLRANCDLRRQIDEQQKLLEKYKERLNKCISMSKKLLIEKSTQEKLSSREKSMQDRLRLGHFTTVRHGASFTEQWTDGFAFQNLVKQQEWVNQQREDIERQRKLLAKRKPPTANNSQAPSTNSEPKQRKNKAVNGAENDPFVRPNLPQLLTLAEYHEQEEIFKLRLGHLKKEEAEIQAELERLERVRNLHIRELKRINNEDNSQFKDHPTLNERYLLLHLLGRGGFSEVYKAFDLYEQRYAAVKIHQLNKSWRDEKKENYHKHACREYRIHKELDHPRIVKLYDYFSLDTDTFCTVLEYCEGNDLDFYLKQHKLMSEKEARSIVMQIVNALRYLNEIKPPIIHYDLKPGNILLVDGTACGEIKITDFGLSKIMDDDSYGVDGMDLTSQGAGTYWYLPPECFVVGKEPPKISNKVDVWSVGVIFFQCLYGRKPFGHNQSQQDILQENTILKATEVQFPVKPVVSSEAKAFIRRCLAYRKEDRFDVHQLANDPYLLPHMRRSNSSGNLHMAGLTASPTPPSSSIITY
As to the kind of experiment: Selectivity interaction (KinomeScan (DiscoverX)) EUB0000618a TLK1. The following applies: at 10 µM.

Chain of Serine/threonine-protein kinase 33 (Homo sapiens) (Q9BYT3 whole entry, looked up): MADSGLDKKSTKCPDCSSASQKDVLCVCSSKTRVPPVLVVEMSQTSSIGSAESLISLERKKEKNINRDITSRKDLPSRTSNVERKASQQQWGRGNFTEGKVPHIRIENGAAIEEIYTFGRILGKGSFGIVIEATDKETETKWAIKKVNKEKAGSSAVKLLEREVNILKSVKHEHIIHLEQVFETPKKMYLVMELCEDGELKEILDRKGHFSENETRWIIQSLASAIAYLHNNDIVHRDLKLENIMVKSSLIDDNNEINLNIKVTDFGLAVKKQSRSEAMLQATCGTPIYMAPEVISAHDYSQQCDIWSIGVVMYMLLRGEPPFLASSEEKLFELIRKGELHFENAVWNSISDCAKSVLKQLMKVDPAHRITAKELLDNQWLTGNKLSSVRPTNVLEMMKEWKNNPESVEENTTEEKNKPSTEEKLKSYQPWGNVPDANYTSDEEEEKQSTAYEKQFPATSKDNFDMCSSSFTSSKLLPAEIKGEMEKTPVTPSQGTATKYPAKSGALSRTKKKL
Chain of STE20-like serine/threonine-protein kinase (Q9H2G2 whole entry, looked up): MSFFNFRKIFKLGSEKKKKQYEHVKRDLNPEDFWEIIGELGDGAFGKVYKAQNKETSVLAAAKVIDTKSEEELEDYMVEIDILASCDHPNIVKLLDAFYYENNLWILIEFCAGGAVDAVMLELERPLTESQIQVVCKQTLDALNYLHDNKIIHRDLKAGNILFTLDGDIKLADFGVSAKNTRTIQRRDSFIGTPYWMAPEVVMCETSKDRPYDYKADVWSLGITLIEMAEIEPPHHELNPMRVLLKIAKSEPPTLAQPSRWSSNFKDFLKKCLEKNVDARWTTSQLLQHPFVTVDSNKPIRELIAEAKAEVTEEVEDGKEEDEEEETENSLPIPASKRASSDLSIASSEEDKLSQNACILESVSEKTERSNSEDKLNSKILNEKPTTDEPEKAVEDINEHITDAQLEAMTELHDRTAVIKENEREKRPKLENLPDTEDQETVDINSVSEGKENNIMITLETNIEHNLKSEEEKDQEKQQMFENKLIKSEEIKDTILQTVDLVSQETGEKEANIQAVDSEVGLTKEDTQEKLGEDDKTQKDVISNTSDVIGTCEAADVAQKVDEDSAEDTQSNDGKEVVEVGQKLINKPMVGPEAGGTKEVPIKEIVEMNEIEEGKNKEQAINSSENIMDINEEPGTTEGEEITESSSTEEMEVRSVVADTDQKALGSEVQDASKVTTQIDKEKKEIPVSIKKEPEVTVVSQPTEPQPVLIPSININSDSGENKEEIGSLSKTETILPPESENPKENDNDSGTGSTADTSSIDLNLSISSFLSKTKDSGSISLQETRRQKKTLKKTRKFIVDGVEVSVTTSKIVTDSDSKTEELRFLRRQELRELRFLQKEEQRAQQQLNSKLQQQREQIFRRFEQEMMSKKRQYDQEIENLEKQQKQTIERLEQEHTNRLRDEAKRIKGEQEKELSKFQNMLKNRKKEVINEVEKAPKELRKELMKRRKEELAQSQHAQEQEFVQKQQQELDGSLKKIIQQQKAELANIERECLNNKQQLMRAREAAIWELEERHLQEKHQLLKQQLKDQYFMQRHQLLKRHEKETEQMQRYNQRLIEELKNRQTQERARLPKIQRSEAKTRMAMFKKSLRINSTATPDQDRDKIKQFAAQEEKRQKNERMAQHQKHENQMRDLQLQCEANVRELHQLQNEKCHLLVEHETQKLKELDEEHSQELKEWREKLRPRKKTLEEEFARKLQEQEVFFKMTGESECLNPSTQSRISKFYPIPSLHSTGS
Chain of Serine/threonine-protein kinase 10 (Homo sapiens) (O94804 whole entry, looked up): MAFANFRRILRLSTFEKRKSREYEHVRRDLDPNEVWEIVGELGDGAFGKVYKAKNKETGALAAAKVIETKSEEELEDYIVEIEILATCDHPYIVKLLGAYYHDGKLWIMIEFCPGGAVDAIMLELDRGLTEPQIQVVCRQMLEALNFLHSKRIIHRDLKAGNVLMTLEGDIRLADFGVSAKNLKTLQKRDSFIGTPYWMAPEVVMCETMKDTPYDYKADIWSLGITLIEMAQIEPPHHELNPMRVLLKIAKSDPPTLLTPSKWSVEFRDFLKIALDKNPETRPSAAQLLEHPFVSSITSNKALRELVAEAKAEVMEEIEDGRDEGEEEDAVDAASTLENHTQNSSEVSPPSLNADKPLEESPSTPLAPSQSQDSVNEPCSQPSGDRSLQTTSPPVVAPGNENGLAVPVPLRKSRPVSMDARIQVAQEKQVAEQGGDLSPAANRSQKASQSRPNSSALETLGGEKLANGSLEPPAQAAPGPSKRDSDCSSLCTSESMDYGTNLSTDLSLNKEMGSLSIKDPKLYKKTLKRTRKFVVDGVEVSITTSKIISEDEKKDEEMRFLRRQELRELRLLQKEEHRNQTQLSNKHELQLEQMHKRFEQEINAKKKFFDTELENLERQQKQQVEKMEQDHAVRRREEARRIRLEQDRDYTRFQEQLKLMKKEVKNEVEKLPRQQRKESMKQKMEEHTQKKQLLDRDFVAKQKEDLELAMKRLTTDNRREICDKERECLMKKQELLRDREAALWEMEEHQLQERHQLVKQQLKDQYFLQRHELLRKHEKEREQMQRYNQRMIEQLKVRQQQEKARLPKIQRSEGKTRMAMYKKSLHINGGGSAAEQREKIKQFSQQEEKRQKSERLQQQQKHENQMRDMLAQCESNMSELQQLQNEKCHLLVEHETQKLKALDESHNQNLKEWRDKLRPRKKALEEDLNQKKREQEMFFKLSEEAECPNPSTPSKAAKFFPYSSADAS
Chain of Dual specificity protein kinase CLK4 (Q9HAZ1 whole entry, looked up): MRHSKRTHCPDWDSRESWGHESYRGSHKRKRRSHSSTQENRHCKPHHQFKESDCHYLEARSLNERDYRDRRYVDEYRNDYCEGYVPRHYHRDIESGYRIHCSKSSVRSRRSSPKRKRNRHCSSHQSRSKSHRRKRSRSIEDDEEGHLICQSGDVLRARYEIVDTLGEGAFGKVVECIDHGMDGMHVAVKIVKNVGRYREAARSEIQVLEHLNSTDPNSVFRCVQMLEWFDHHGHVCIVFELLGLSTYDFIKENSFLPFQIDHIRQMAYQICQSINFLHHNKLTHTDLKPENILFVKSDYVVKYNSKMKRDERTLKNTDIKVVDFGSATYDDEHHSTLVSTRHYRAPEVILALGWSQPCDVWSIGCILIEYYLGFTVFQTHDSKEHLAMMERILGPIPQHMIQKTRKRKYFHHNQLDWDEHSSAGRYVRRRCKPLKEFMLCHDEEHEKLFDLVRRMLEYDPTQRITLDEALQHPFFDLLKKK
Chain of Ribosomal protein S6 kinase alpha-1 (Q15418 whole entry): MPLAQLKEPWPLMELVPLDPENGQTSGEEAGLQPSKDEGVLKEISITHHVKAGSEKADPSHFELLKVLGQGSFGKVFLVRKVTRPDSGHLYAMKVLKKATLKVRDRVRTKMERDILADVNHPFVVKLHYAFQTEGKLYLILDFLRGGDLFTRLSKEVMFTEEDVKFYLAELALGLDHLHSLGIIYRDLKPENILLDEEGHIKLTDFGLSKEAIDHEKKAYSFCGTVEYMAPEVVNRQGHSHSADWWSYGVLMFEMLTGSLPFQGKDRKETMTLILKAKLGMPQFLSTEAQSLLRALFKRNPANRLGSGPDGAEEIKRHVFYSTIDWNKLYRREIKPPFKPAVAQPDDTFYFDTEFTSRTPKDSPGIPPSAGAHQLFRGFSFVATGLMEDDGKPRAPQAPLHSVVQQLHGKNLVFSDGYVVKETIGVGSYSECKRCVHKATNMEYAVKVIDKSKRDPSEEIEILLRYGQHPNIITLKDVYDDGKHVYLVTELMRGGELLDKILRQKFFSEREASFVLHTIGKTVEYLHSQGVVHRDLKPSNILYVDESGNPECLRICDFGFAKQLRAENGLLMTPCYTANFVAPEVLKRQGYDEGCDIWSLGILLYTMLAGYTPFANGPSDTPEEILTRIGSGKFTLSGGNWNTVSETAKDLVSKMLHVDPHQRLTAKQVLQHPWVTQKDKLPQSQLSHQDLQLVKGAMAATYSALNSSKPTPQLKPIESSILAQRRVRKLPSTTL
Chain of Interleukin-1 receptor-associated kinase 1 (Homo sapiens) (P51617 whole entry, looked up): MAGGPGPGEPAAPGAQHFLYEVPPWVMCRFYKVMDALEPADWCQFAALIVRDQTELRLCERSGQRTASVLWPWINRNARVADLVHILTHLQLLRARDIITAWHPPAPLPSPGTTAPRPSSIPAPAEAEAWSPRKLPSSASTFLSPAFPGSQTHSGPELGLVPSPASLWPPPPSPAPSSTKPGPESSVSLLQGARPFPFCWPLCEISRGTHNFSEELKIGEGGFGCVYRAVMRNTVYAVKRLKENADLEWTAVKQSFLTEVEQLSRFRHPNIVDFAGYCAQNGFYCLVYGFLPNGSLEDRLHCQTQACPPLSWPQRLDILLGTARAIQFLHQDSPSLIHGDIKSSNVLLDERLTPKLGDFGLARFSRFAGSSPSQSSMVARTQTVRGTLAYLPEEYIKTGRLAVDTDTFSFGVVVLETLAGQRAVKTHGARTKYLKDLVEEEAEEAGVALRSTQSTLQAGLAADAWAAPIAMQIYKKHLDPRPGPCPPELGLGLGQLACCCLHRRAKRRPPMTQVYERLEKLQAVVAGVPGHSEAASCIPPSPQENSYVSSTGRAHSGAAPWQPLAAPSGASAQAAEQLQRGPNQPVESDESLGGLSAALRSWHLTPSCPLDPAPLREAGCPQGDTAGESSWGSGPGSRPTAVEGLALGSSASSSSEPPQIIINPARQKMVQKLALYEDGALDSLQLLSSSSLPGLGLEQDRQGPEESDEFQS

Turning to `Cn1cc(-n2cnc3c(NCc4nc5cc(Cl)c(Cl)cc5[nH]4)nc(N4CCOCC4)nc32)cn1`, the IC50 in test [1] and in test [2] was more than 10 µM in each case.
In [3], `O=C(NOC[C@H](O)CO)c1ccc(F)c(F)c1Nc1ccc(I)cc1F` came in with a % of control of 89%.
Regarding `COc1cc(N(C)c2ccnc3ccc(C(F)(F)F)cc23)cc(OC)c1OC`, the % binding in test [4] stood at 82%.
Consider `N#Cc1cccc(-c2c[nH]c3ncnc(N4CCOCC4)c23)c1`, for which, in test [5], the % of inhibition was 58%.
Regarding `CC[C@@H]1[C@H](F)C(=O)N[C@@H]1COc1nccc2cc(C(N)=O)c(OC)cc12` [ZIMLOVISERTIB], the % of inhibition in test [6] is -21.8%; in test [7], -0.4%; in [8] it was 12.4%.
As for `Cc1cc(F)c(C(=O)Nc2cccc(-c3nncn3C(C)C)n2)cc1-n1cnc(C2CC2)c1`, the % of control in [9] was 96%.
As to `C=CC(=O)Nc1cccc(C(=O)Nc2ccc(Nc3cc(-c4[nH]c(SC)nc4C)ccn3)cc2)c1`, the % of control came to 76% in test [10] (at 1 µM) and 71% in test [10] (at 5 µM).
Turning to `O[C@H]1CC[C@H](Nc2ncc3nc(Nc4c(F)cc(F)cc4F)n([C@H]4CCOC4)c3n2)CC1`, the % of control in [11] amounted to 50%.
